# Experimental data as given in patent publication US5385917A, “Carboxylic acid derivatives” (Mitsubishi Kasei Corporation, priority 1992, dated 1995).
# Target: T1, Human steroid 5α-reductase (Homo sapiens, UniProt P31213)
# T1 construct: The suspension was used as the source of 5α-reductase; from tissue; host or cells: frozen human prostate, whole homogenate in 0.1 M phosphate buffer pH 5.5
# T1 sequence (P31213 1-254): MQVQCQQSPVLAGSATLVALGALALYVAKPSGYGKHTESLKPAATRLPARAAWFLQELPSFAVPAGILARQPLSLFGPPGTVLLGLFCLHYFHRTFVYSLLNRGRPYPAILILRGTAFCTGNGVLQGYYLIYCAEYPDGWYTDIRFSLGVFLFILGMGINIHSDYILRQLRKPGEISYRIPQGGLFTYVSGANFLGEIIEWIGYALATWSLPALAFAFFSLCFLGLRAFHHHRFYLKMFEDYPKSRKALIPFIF
# Assay: Human steroid 5α-reductase inhibiting effect using human prostatic tissue
# Format: biochemical
# Settings: human prostate homogenate, pH 5.5, 50 nM [3H]testosterone, NADPH, 37° C., 10 min; Table 5
# From the text: Human steroid 5α-reductase inhibiting effect was examined on the compounds of the present invention using human prostatic tissue.
# Frozen human prostate was thawed on ice and minced into small pieces (~5mm^3). The minced tissue was homogenized with a Polytron homogenizer (Kinematica, Switzerland) in 40 vol. of 0.1M phosphate buffer at pH 5.5. The suspension was used as the source of 5α-reductase.
# For this test, DMSO solutions containing various amount of the inhibitor were employed.
# Each reaction solution was incubated at 37° C. for 10 minutes and ethyl acetate (2 ml) chilled with ice was added for stopping the reaction. The organic layer was transferred to another test tube and evaporated to dryness under nitrogen. Each 50 μg of non radioactive testosterone, DHT, estradiol, androstenedione and androstandiol was added to the residue, and the wall of each test tube was washed with ethyl acetate (0.1 ml). The content of the tube was evaporated again and the residue was dissolved in chloroform (50 μl) and then applied to Whatman LK60DF silica plates (Whatman, N.J.), developing in chloroform:methanol (50:1). The bands of the substrates and products were identified by fluorescence (254 nm) and iodine, and the relevant silica gel was collected by scraping, mixed with toluene based liquid sincilator, and the radioactivity was counted. The radioactivities of DHT and androstandiol were combined for the calculation of 5α-reductase activity. […] The radioactivity for the control group was postulated as 100%.
# IC50 were calculated from the data obtained from the above experiments.
row,SMILES,IC50 [nM]
1,CC12CCC(C(=O)O)=CC1=CCCC2NC(=O)c1ccc(Oc2ccccc2)cc1 (centres unmarked) [Example 1],3300
2,"CC12CCC(C(=O)O)=CC1=CCCC2NC(=O)c1cccc(Oc2ccccc2)c1 (centres unmarked) [Example 2, 5-(3'-phenoxybenzoylamino)-10-methyl-Δ^1(2),8(9) -octalin-2-carboxylic acid]",830
3,"CC(C)c1ccc(Oc2cccc(C(=O)NC3CCC=C4C=C(C(=O)O)CCC43C)c2)cc1 (centres unmarked) [Example 4, 5-[3'-(p-isopropylphenoxy)benzoylamino]-10-methyl-Δ^1(2),8(9) -octalin-2-carboxylic acid]",810
4,"CC(C)c1cccc(Oc2cccc(C(=O)NC3CCC=C4C=C(C(=O)O)CCC43C)c2)c1 (centres unmarked) [Example 5, 5-[3'-(m-isopropylphenoxy)benzoylamino]-10-methyl-Δ^1(2),8(9) -octalin-2-carboxylic acid]",460
5,"Cc1ccc(Oc2cccc(C(=O)NC3CCC=C4C=C(C(=O)O)CCC43C)c2)cc1 (centres unmarked) [Example 7, 5-[3'-(p-tolyloxy)benzoylamino]-10-methyl-Δ^1(2),8(9) -octalin-2-carboxylic acid]",210
6,"CC(C)Cc1ccc(Oc2cccc(C(=O)NC3CCC=C4C=C(C(=O)O)CCC43C)c2)cc1 (centres unmarked) [Example 9, 5-{3""-[p-(2'-methylpropyl]phenoxy)benzoylamino}-10-methyl-Δ^1(2),8(9) -octalin-2-carboxylic acid]",520
7,"CC12CCC(C(=O)O)=CC1=CCCC2NC(=O)c1cccc(Oc2ccc(C3CCCCC3)cc2)c1 (centres unmarked) [Example 11, 5-[3'-(p-cyclohexylphenoxy)benzoylamino]-10-methyl-Δ^1(2),8(9) -octalin-2-carboxylic acid]",250
8,"Cc1cc(C)cc(Oc2cccc(C(=O)NC3CCC=C4C=C(C(=O)O)CCC43C)c2)c1 (centres unmarked) [Example 13, 5-[3'-(3,5-dimethylphenoxy)benzoylamino]-10-methyl-Δ^1(2),8(9) -octalin-2-carboxylic acid]",660
9,"CC12CCC(C(=O)O)=CC1=CCCC2NC(=O)c1cccc(Oc2ccc3c(c2)CCCC3)c1 (centres unmarked) [Example 14, 5-[3'-(5"",6"",7"",8""-tetrahydro-2""-naphtoxy)benzoylamino]-10-methyl-Δ^1(2),8(9) -octalin-2-carboxylic acid]",440
10,"CC12CCC(C(=O)O)=CC1=CCCC2NC(=O)c1cccc(OCc2ccccc2)c1 (centres unmarked) [Example 15, 5-(3'-benzyloxy-benzoylamino)-10-methyl-Δ^1(2),8(9) -octalin-2-carboxylic acid]",4210
11,"CC12CCC(C(=O)O)=CC1=CCCC2NC(=O)c1cccc(OC2CCCC2)c1 (centres unmarked) [Example 17, 5-(3'-cyclopentyloxybenzoylamino)-10-methyl-Δ^1(2),8(9) -octalin-2-carboxylic acid]",180
12,"CC12CCC(C(=O)O)=CC1=CCCC2NC(=O)c1cccc(OC2CCCCCCC2)c1 (centres unmarked) [Example 20, 5-(3'-cyclooctyloxybenzoylamino)-10-methyl-Δ^1(2),8(9) -octalin-2-carboxylic acid]",270
13,"CC(C)C1CCC(Oc2cccc(C(=O)NC3CCC=C4C=C(C(=O)O)CCC43C)c2)CC1 (centres unmarked) [Example 22, 5-[3-(4-isopropylcyclohexyloxy)benzoylamino]-10-methyl-Δ^1(2),8(9) -octalin-2-carboxylic acid]",520
14,"CC12CCC(C(=O)O)=CC1=CCCC2NC(=O)c1cccc(O[C@H]2CC[C@H](C(C)(C)C)CC2)c1 (stereo partly drawn) [Example 23, 5-[3-(4-trans-t-butylcyclohexyloxy)benzoylamino]-10-methyl-Δ^1(2),8(9) -octalin-2-carboxylic acid]",300
15,"CC12CCC(C(=O)O)=CC1=CCCC2NC(=O)c1cccc(OCC2CCCCC2)c1 (centres unmarked) [Example 31, 5-(3'-cyclohexylmethoxybenzoylamino)-10-methyl-Δ^1(2),8(9) -octalin-2-carboxylic acid]",410
16,"CC12CCC(C(=O)O)=CC1=CCCC2NC(=O)c1cccc(CC2CCCCC2)c1 (centres unmarked) [Example 35, 5-(3'-cyclohexylmethylbenzoylamino)-10-methyl-Δ^1(2),8(9) -octalin-2-carboxylic acid]",160
17,"CC(C)c1ccc(Oc2cc(Br)cc(C(=O)NC3CCC=C4C=C(C(=O)O)CCC43C)c2)cc1 (centres unmarked) [Example 37, 5-[3-bromo-5-(p-isopropylphenoxy)benzoylamino]-10-methyl-Δ^1(2),8(9) -octalin-2-carboxylic acid]",300
18,"COc1ccc(C(=O)NC2CCC=C3C=C(C(=O)O)CCC32C)cc1OC1CCCCCC1 (centres unmarked) [Example 39, 5-(3'-cycloheptyloxy-4'-methoxybenzoylamino)-10-methyl-Δ^1(2),8(9) -octalin-2-carboxylic acid]",390
19,"CC12CCC(C(=O)O)=CC1=CCCC2NC(=O)c1ccc2c(c1)OC1(CCCCC1)O2 (centres unmarked) [Example 42, 5-(3',4'-cyclohexylidenedioxybenzoylamino)-10-methyl-Δ^1(2),8(9)-octalin-2-carboxylic acid]",770
20,"CC(C)(C)c1cc(C(=O)NC2CCC=C3C=C(C(=O)O)CCC32C)cc(C(C)(C)C)c1 (centres unmarked) [Example 43, 5-(3',5'-di-t-butylbenzoylamino)-10-methyl-Δ^1(2),8(9) -octalin-2-carboxylic acid]",230
21,"C[C@@]12CCC(C(=O)O)=CC1=CCC[C@H]2NC(=O)c1cccc(OC2CCCCCC2)c1 [Example 45, (5R,10R)-5-(3'-cycloheptyloxybenzoylamino)-10-methyl-Δ^1(2),8(9)-octalin-2-carboxylic acid]",610
22,"C[C@]12CCC(C(=O)O)=CC1=CCC[C@@H]2NC(=O)c1cccc(OC2CCCCCC2)c1 [Example 46, (5S,10S)-5-(3'-cycloheptyloxybenzoylamino)-10-methyl-Δ^1(2),8(9)-octalin-2-carboxylic acid]",300
23,"C[C@]12CCC(C(=O)O)=CC1=CCC[C@@H]2NC(=O)c1cccc(OC(C2CC2)C2CC2)c1 [Example 47, (5S,10S)-5-(3'-dicyclopropylmethoxybenzoylamino)-10-methyl-Δ^1(2),8(9) -octalin-2-carboxylic acid]",160
24,"CC(C)C(Oc1cccc(C(=O)N[C@H]2CCC=C3C=C(C(=O)O)CC[C@@]32C)c1)C(C)C [Example 48, (5S,10S)-5-[3'-(2"",4""-dimethyl-3""-pentyloxy)benzoylamino]-10-methyl-Δ^1(2),8(9) -octalin-2-carboxylic acid]",65
25,"Cc1c(OC2CCCCCC2)cccc1C(=O)NC1CCC=C2C=C(C(=O)O)CCC21C (centres unmarked) [Example 51, 5-(3'-cycloheptyloxy-2-methylbenzoylamino)-10-methyl -Δ^1(2),8(9) -octalin-2-carboxylic acid]",910
26,"C[C@]12CCC(C(=O)O)=CC1=CC[C@@H]2NC(=O)c1cccc(OC(C2CC2)C2CC2)c1 [Example 54, (1S,8S)-1-[3'-(dicyclopropylmethyloxy)benzoylamino]-8a-methyl-1,2,6,7-tetrahydroindene-5-carboxylic acid]",160
